What was measured:
MPTP-induced mouse [1] = test: Number of neurites and spines per neuron in MPTP-induced mouse (confocal microscopy); assay type: in vivo, C57BL/6 mice; conditions: 1 mg/kg oral once a day for 10 days after MPTP
Procedure: To observe whether or not the number of neurites and spines per neuron in the tissues was increased, a coronal slice with a thickness of 200 um containing striatum or substantia nigra was prepared using a vibratome. Each group of mice was sacrificed, and the brain was taken out of each group and then placed in a cold, highly-concentrated sucrose dissection buffer bubbled with carbogen (5% CO2 and 95% O2) (87 mM NaCl, 2.5 mM KCl, 1.25 mM NaH2PO4, 25 mM NaHCO3, 1 mM CaCl2, 3 mM MgCl2, 10 mM dextrose, and 75 mM sucrose). While the vibratome was performed, a slicing chamber was filled with the uniformly carbogenated sucrose dissection buffer. After the slicing process was terminated, all the slices were washed with PBS, and fixed with 4% paraformaldehyde in a PBS solution. The fixed brain slices were placed on a 1.5% agarose (in PBS) block. Images thereof were obtained using a confocal microscope (ZEISS LSM 510 META) by using Zeiss LSM image browser software (Carl Zeiss Microimaging, Germany, version 4.0 SP2).

caspase 3 = test: Activity of caspase 3/7 (Apo-ONE) in MPP+-treated cells; assay type: cell-based, human; conditions: 2 mM MPP+, 24 hours; CBI 1, 5, 10 and 50 nM, rasagiline 50 nM; FIG. 18
Procedure: SH-SY5Y cells were incubated in a 96-well plate at a concentration of 5×10^5 cells/well under the same conditions as described above, the cells were treated with 2 mM of MPP^+ and CBI (1, 5, 10 and 50 nM) or rasagiline (50 nM), and the resulting cells were incubated for 24 hours. Subsequently, 100 μl of Apo-ONE caspase 3/7 reagent (Promega, G7790) was added thereto and mixed therewith, and the resultant was further incubated for 4 hours. After the incubation was terminated, fluorescence was measured at an excitation wavelength of 495 nm and an emission wavelength of 521 nm by using a fluorescence plate reader (GeminiXPS, Molecular Devices).

[2] = test system: MAO-B-deficient human neuroblastoma SH-SY5Y cells; test: Reactive oxygen species (DCF-DA staining) in MPP+-treated cells; assay type: cell-based; conditions: 2 mM MPP+, 50 nM, 24 hours; FIGS. 19 and 20
Procedure: In this embodiment, MAO-B-deficient human neuroblastoma SH-SY5Y cells (Korean Cell Line Bank) were used. The cells were cultured in a DMEM medium at 37° C. with 5% of CO2 for 24 hours. The cultured cells were divided into three groups, 2 mM of MPP^+ was added to each group, one of the three groups was treated with 50 nM of CBI, one of the other two groups was treated with 50 nM of rasagiline, and the three groups were further incubated with 5% of CO2 at 37° C. for 24 hours. The group with only MPP^+ added thereto was incubated under the same conditions as described above. Subsequently, the cells were stained with 2,7-dichlorofluorescein diacetate (DCF-DA), which is a fluorescence dye capable of detecting reactive oxygen species, and then observed using a confocal microscope (Nikon Co., Japan).

MPTP-induced mouse [3] = test: Concentration of dopamine in striatum of MPTP-induced mouse (HPLC); assay type: in vivo, C57BL/6 mice; conditions: 1 mg/kg oral once a day, FIG. 4
Procedure: 7 days after the compounds described above are respectively administered to the three groups, the mice in each group were sacrificed by cervical dislocation and brain tissues were immediately taken out of the mice. Striatum was collected from the brain tissue, 0.5 ml of a HPLC assay diluent (0.1 M HClO4, 0.1 mM EDTA) was added to the striatum, and a tissue homogenate was then prepared using an ultrasonic processor. The homogenate was centrifuged at 12,000 rpm for 15 minutes, and the supernatant was filtered with a nitrocellulose filter (0.2 um, Millipore). For HPLC analysis, HR-80 column (80 mm×4.6 mm, particle size: 3 μm ESA, USA) was used, the flow rate of a mobile phase (0.07 M monobasic sodium phosphate, 1 mM sodium octasulfonic acid, 0.1 uM EDTA, 5% acetonitrile, pH 3.2) was maintained at 0.7 ml/min, and the electrode potential of an electrochemical detector (Coulochem III, ESA, USA) was at E1=−100 mV, E2=350 mV.

For `C#CCN[C@@H]1CCc2ccccc21` [rasagiline, R(+)-N-propargyl-1-aminoindan, reference compound], the number of neurites (MPTP-induced mouse [1]; FIG. 23) was “did not exhibit statistical significance”, the number of spines (MPTP-induced mouse [1]; FIG. 24) was “an increase in the number of spines was observed” and the “activity of caspase 3” value (caspase 3) was “reduced”. The reactive oxygen species [2] was “significantly decreased” and the “restoration of the concentration of dopamine in striatum compared with normal mice” value (MPTP-induced mouse [3]) was “about 40%”.
